Some test systems named below: MALME-3M melanoma; UACC-62 melanoma; U251 CNS; A498 renal; IGROV1 ovarian; SK-MEL-2 melanoma; NCI-H460 lung; UACC-257 melanoma; A549 NSCLC; OVCAR-5 ovarian; EKVX NSCLC; RXF 393 renal; HL-60(TB) leukemia; NCI/ADR-RES ovarian; SK-MEL-5 melanoma; K-562 leukemia; SF-539 CNS; SW-620 colon; MDA-MB-435.
What all share (test): NCI-60 cell line screen, 48 h

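Test compounds were applied to cells in 96-well plates for 48 hours at 5 doses. TGI: total growth inhibition.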

With `CC[C@]12C=CCN3CC[C@@]4(c5ccc(OC)cc5N(C)[C@H]4[C@@](O)(C(=O)OC)[C@@H]1OC(C)=O)[C@@H]32`, the TGI with MALME-3M melanoma, with UACC-62 melanoma, in the experiment with U251 CNS, in the experiment on A498 renal, with IGROV1 ovarian and in the experiment on SK-MEL-2 melanoma was greater than 200 µM in each case. The TGI with NCI-H460 lung, in the experiment with UACC-257 melanoma, in the experiment with A549 NSCLC, with OVCAR-5 ovarian, with EKVX NSCLC and with RXF 393 renal was greater than 200 µM in each case. Besides, the TGI in the experiment on HL-60(TB) leukemia, in the experiment with NCI/ADR-RES ovarian, in the experiment with SK-MEL-5 melanoma, with K-562 leukemia, in the experiment on SF-539 CNS and in the experiment with SW-620 colon was greater than 200 µM throughout.
As to `CC(C)CCN=c1cc2n(-c3ccc(Cl)cc3)c3ccccc3nc-2cc1Nc1ccc(Cl)cc1`, the TGI amounted to 31 µM in the experiment with MALME-3M melanoma; 20.4 µM with UACC-62 melanoma; 26.5 µM in the experiment on U251 CNS; 48.5 µM with A498 renal; 17.9 µM with IGROV1 ovarian; 12.3 µM in the experiment on SK-MEL-2 melanoma. The TGI was 15.6 µM with NCI-H460 lung; 19.7 µM in the experiment with UACC-257 melanoma; greater than 56.4 µM with A549 NSCLC; 35.3 µM with OVCAR-5 ovarian; greater than 53 µM in the experiment on EKVX NSCLC; 10.9 µM with RXF 393 renal. For the same molecule, the TGI was 11.1 µM with HL-60(TB) leukemia; 28.6 µM in the experiment with NCI/ADR-RES ovarian; 25.3 µM with SK-MEL-5 melanoma; 26.4 µM in the experiment with K-562 leukemia; 32.1 µM with SF-539 CNS; greater than 70.3 µM in the experiment with SW-620 colon.
For `CC(=O)OC[C@H]1[C@@H]2C(CC[C@]13CO3)OC(=O)CC(C)[C@]2(C)CCc1ccoc1` (some centres not stated), the TGI in the experiment on MALME-3M melanoma, with UACC-62 melanoma, in the experiment with U251 CNS, with A498 renal, in the experiment on IGROV1 ovarian and with MDA-MB-435 was greater than 100 µM throughout. The TGI in the experiment with NCI-H460 lung, in the experiment on UACC-257 melanoma, with A549 NSCLC, in the experiment on OVCAR-5 ovarian, in the experiment with EKVX NSCLC and in the experiment on RXF 393 renal was greater than 100 µM in each case. In addition, the TGI in the experiment on HL-60(TB) leukemia, in the experiment with NCI/ADR-RES ovarian, in the experiment on SK-MEL-5 melanoma, with K-562 leukemia, in the experiment on SF-539 CNS and in the experiment with SW-620 colon was greater than 100 µM in each case.
In the case of `CC[N+](C)(CC)Cc1ccccc1[N+](=O)[O-]`, the TGI in the experiment on MALME-3M melanoma, in the experiment with UACC-62 melanoma, in the experiment with U251 CNS, in the experiment on A498 renal, in the experiment on IGROV1 ovarian and with SK-MEL-2 melanoma was greater than 100 µM in each case. The TGI in the experiment on MDA-MB-435, with NCI-H460 lung, with UACC-257 melanoma, in the experiment on A549 NSCLC, in the experiment with OVCAR-5 ovarian and in the experiment with EKVX NSCLC was greater than 100 µM in each case. In addition, the TGI in the experiment with RXF 393 renal, in the experiment on HL-60(TB) leukemia, in the experiment with NCI/ADR-RES ovarian, in the experiment with SK-MEL-5 melanoma, with K-562 leukemia and with SF-539 CNS was greater than 100 µM throughout. The molecule further registered a TGI with SW-620 colon greater than 100 µM.
Turning to `C=CCNc1ccc(C)cc1`, the TGI in the experiment with U251 CNS was greater than 100 µM; with A498 renal, 30.7 µM; in the experiment on MDA-MB-435, greater than 100 µM; with NCI-H460 lung, greater than 100 µM; with UACC-257 melanoma, greater than 100 µM; in the experiment on A549 NSCLC, greater than 100 µM. Besides, the TGI in the experiment on RXF 393 renal, in the experiment with NCI/ADR-RES ovarian, in the experiment on SK-MEL-5 melanoma, in the experiment on K-562 leukemia and in the experiment with SW-620 colon was greater than 100 µM each time.
Turning to `Cc1cc(NS(=O)(=O)c2ccc(N=Nc3c(O)c(C(=O)O)cc4ccccc34)cc2)nc(C)n1`, the TGI with MALME-3M melanoma, in the experiment with UACC-62 melanoma, in the experiment with U251 CNS, in the experiment with IGROV1 ovarian, in the experiment on SK-MEL-2 melanoma and with MDA-MB-435 was greater than 100 µM each time. Further, the TGI in the experiment on NCI-H460 lung, in the experiment on UACC-257 melanoma, in the experiment on A549 NSCLC, with OVCAR-5 ovarian, with EKVX NSCLC and in the experiment on RXF 393 renal was greater than 100 µM each time. Also, the TGI in the experiment with HL-60(TB) leukemia, with NCI/ADR-RES ovarian, in the experiment on SK-MEL-5 melanoma, in the experiment on K-562 leukemia, in the experiment with SF-539 CNS and with SW-620 colon was greater than 100 µM in each case.
`C[N+](C)(N)CCC[N+](C)(C)N`: the TGI in the experiment with MALME-3M melanoma, in the experiment on UACC-62 melanoma, in the experiment with U251 CNS, with A498 renal, in the experiment with IGROV1 ovarian and in the experiment on SK-MEL-2 melanoma was greater than 100 µM in each case. Further, the TGI in the experiment on MDA-MB-435, with NCI-H460 lung, in the experiment on UACC-257 melanoma, in the experiment on A549 NSCLC, in the experiment on OVCAR-5 ovarian and with EKVX NSCLC was greater than 100 µM each time. The TGI in the experiment with RXF 393 renal, in the experiment with HL-60(TB) leukemia, in the experiment with NCI/ADR-RES ovarian, in the experiment on SK-MEL-5 melanoma, with K-562 leukemia and with SF-539 CNS was greater than 100 µM throughout. The same molecule yielded a TGI in the experiment with SW-620 colon greater than 100 µM.
`CC(=O)[C@]1(O)Cc2c(O)c3c(c(O)c2C(OC2OC(C)C(O)C(O)C2F)C1)C(=O)c1ccccc1C3=O` (some centres not stated): the TGI with MALME-3M melanoma amounted to 1.48 µM; in the experiment on UACC-62 melanoma, 0.724 µM; in the experiment on U251 CNS, 0.996 µM; in the experiment with A498 renal it was 0.398 µM; with IGROV1 ovarian, 24.9 µM; with SK-MEL-2 melanoma, 2.88 µM. Besides, the TGI with MDA-MB-435 is 1.95 µM; in the experiment on UACC-257 melanoma, 2.38 µM; in the experiment on OVCAR-5 ovarian it was 1.31 µM; in the experiment on EKVX NSCLC, 14.7 µM; with RXF 393 renal, 1.89 µM; with HL-60(TB) leukemia, less than 0.0303 µM. The TGI in the experiment with NCI/ADR-RES ovarian was determined as 3.78 µM; in the experiment with SK-MEL-5 melanoma it was 0.68 µM; in the experiment on K-562 leukemia, 1.25 µM; in the experiment with SF-539 CNS, 0.374 µM.
